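Test compounds were applied to cells in 96-well plates for 48 hours at 5 doses. GI50 marks 50% less growth.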 Active and inactive are the calls of the source. Rule as the data show it: active = GI50 up to about 1.1 µM and inactive = higher. *1 amine or outer side, *2 acyl side, *3 side chain or, on linkers, in order; H or OH if unused. Where a SMILES comes first, the peptide text is derived from it. Bridges are numbered along the chain shown (N, C = ends). [ ]: non-standard residue; d: D form. The star is where a group is joined. X36 = O=C(C(CCCCNO[*:3])N[*:1])[*:2]; Fmoc = O=C(OCC1c2ccccc2-c2ccccc21)*
How the values were obtained:
Test in all cases: NCI-60 cell line screen, 48 h
SK-MEL-5 = tested on: SK-MEL-5
DU-145 = tested on: DU-145
A498 = tested on: A498
MDA-MB-435 = tested on: MDA-MB-435
HT-29 = tested on: HT-29
CCRF-CEM = tested on: CCRF-CEM
A549 = tested on: A549
NCI-H226 = tested on: NCI-H226
TK-10 = tested on: TK-10
MDA-N = tested on: MDA-N
EKVX = tested on: EKVX
OVCAR-8 = tested on: OVCAR-8
MCF7 = tested on: MCF7
SW-620 = tested on: SW-620
SF-295 = tested on: SF-295
SR = tested on: SR
NCI-H460 = tested on: NCI-H460
SNB-75 = tested on: SNB-75
T47D = tested on: T47D

Measured: GI50

Cc1cccc(N2C(=O)C3c4[nH]c5ccccc5c4C4CCC(C(C)(C)C)CC4C3C2=O)c1C (stereo not drawn)
inactive: SK-MEL-5 > 100 µM | DU-145 > 100 µM | A498 > 100 µM | MDA-MB-435 > 100 µM | HT-29 > 100 µM | CCRF-CEM 56.6 µM | A549 47 µM | NCI-H226 > 100 µM | TK-10 > 100 µM | MDA-N > 100 µM | EKVX 29.7 µM | OVCAR-8 38.9 µM | MCF7 > 100 µM | SW-620 40 µM | SF-295 > 100 µM | SR > 100 µM | NCI-H460 > 100 µM

Cc1ccc(Cc2c(=O)[nH]nc3ccccc23)cc1
inactive: SK-MEL-5 > 100 µM | A498 > 100 µM | SNB-75 79.8 µM | HT-29 > 100 µM | CCRF-CEM > 100 µM | A549 > 100 µM | NCI-H226 > 100 µM | TK-10 > 100 µM | EKVX > 100 µM | OVCAR-8 > 100 µM | SW-620 > 100 µM | SF-295 89.5 µM | NCI-H460 > 100 µM

CCCCCCSCC/C(C)=N\OC
inactive: SK-MEL-5 > 100 µM | DU-145 > 100 µM | A498 > 100 µM | SNB-75 > 100 µM | MDA-MB-435 > 100 µM | HT-29 > 100 µM | CCRF-CEM > 100 µM | A549 > 100 µM | NCI-H226 > 100 µM | TK-10 > 100 µM | MDA-N > 100 µM | EKVX > 100 µM | OVCAR-8 > 100 µM | MCF7 > 100 µM | SW-620 > 100 µM | SF-295 > 100 µM | NCI-H460 > 100 µM

O=C1CCC[C@]2(CCC[C@@H](O)C2)N1
inactive: SK-MEL-5 > 100 µM | DU-145 > 100 µM | SNB-75 > 100 µM | HT-29 > 100 µM | CCRF-CEM > 100 µM | A549 > 100 µM | TK-10 > 100 µM | MDA-N > 100 µM | EKVX > 100 µM | T47D > 100 µM | OVCAR-8 > 100 µM | MCF7 > 100 µM | SF-295 > 100 µM | NCI-H460 > 100 µM

O=S(=O)(c1cc(Cl)ccc1Cl)N1CCN(c2cccc(Cl)c2)CC1
inactive: SK-MEL-5 52.6 µM | DU-145 > 100 µM | A498 > 100 µM | SNB-75 > 100 µM | HT-29 58.7 µM | CCRF-CEM > 100 µM | A549 > 100 µM | NCI-H226 > 100 µM | TK-10 > 100 µM | MDA-N 59.2 µM | EKVX > 100 µM | T47D > 100 µM | OVCAR-8 > 100 µM | MCF7 > 100 µM | SW-620 > 100 µM | SF-295 > 100 µM | SR > 100 µM | NCI-H460 > 100 µM

O=[N+]([O-])c1ccc(-c2nc(/C=N/N3CCCCC3)cs2)o1
inactive: SK-MEL-5 18 µM | DU-145 > 100 µM | SNB-75 > 100 µM | MDA-MB-435 27.7 µM | HT-29 25.9 µM | A549 40 µM | NCI-H226 > 100 µM | TK-10 > 100 µM | EKVX > 100 µM | T47D 90.2 µM | OVCAR-8 92 µM | MCF7 38.6 µM | SW-620 > 100 µM | SF-295 > 100 µM | SR 30.9 µM | NCI-H460 49.2 µM

CC(=O)Oc1c(-c2ccccc2)sc2ccccc12
inactive: SK-MEL-5 18.5 µM | DU-145 14.1 µM | A498 17.8 µM | SNB-75 15.8 µM | MDA-MB-435 25 µM | HT-29 20.3 µM | CCRF-CEM 18 µM | A549 20.6 µM | NCI-H226 13.3 µM | TK-10 22.6 µM | EKVX 22.3 µM | T47D 10.7 µM | OVCAR-8 27.2 µM | MCF7 27.6 µM | SW-620 36.1 µM | SF-295 18.6 µM | SR 10.1 µM | NCI-H460 14.5 µM

CC1(C)CC(=O)c2c([nH]c(=S)c(C#N)c2-c2ccc(Br)cc2)C1
inactive: SK-MEL-5 46.9 µM | DU-145 61 µM | A498 54 µM | SNB-75 > 100 µM | MDA-MB-435 51.5 µM | HT-29 40.3 µM | CCRF-CEM 5.85 µM | A549 56.2 µM | NCI-H226 46.8 µM | TK-10 81.8 µM | MDA-N 70.5 µM | EKVX > 100 µM | OVCAR-8 49.9 µM | MCF7 40.7 µM | SW-620 46.9 µM | SF-295 35.7 µM | SR 22.8 µM | NCI-H460 40.7 µM

Cc1ccccc1C1SCc2nc3ccccc3n21 (stereo not drawn)
inactive: SK-MEL-5 5.19 µM | SNB-75 > 100 µM | CCRF-CEM > 100 µM | A549 > 100 µM | NCI-H226 60.3 µM | TK-10 > 100 µM | EKVX > 100 µM | OVCAR-8 > 100 µM | SF-295 48.9 µM

CC1=NNC(=O)C1C1CC(c2c[nH]c3ccccc23)=NN=C1Cl (stereo not drawn)
inactive: SK-MEL-5 42.8 µM | DU-145 > 100 µM | A498 > 100 µM | SNB-75 75 µM | MDA-MB-435 48.9 µM | HT-29 40.9 µM | CCRF-CEM 25.8 µM | A549 57.4 µM | NCI-H226 74.1 µM | TK-10 > 100 µM | MDA-N 54.7 µM | EKVX 70.8 µM | T47D 36.2 µM | OVCAR-8 > 100 µM | SW-620 63.5 µM | SF-295 53.1 µM | NCI-H460 34.6 µM

Cc1oc2nc(N(C)C)n3nnnc3c2c1C
inactive: SK-MEL-5 > 100 µM | DU-145 > 100 µM | A498 76.2 µM | SNB-75 67.5 µM | MDA-MB-435 > 100 µM | HT-29 > 100 µM | CCRF-CEM > 100 µM | A549 > 100 µM | NCI-H226 > 100 µM | TK-10 > 100 µM | EKVX > 100 µM | T47D > 100 µM | OVCAR-8 76 µM | MCF7 > 100 µM | SW-620 > 100 µM | SF-295 > 100 µM | SR > 10 µM

CSC1=N/C(=C\c2ccccc2)C(=O)N1CN1CCOCC1
inactive: SK-MEL-5 50.5 µM | DU-145 96.2 µM | A498 > 100 µM | SNB-75 69.2 µM | MDA-MB-435 93.8 µM | HT-29 30.8 µM | CCRF-CEM 36 µM | A549 > 100 µM | NCI-H226 41.6 µM | TK-10 > 100 µM | MDA-N > 100 µM | EKVX 50.6 µM | OVCAR-8 41.1 µM | MCF7 28.3 µM | SW-620 41.6 µM | SF-295 > 100 µM | SR 43.6 µM

CC(=O)NC1C(OC2C(CO)OC(OCC3OC(n4ccc(N)nc4=O)C(O)C3O)C(NC(C)=O)C2O)OC(CO)C(O)C1O (stereo not drawn)
inactive: SK-MEL-5 > 100 µM | DU-145 > 100 µM | A498 > 100 µM | SNB-75 > 100 µM | MDA-MB-435 > 100 µM | HT-29 > 100 µM | CCRF-CEM 12.1 µM | A549 > 100 µM | NCI-H226 > 100 µM | TK-10 > 100 µM | EKVX > 100 µM | T47D > 100 µM | OVCAR-8 > 91.2 µM | MCF7 > 94.6 µM | SW-620 > 100 µM | SF-295 > 100 µM | SR > 100 µM | NCI-H460 > 89.3 µM

[O-][S+](c1ccccc1)c1ccc(/N=N/O)nc1 (stereo not drawn)
inactive: SK-MEL-5 > 100 µM | DU-145 > 100 µM | A498 > 100 µM | SNB-75 > 100 µM | HT-29 > 100 µM | CCRF-CEM > 100 µM | A549 > 100 µM | NCI-H226 69.8 µM | TK-10 > 100 µM | MDA-N > 100 µM | EKVX > 100 µM | T47D 82.6 µM | OVCAR-8 > 100 µM | MCF7 > 100 µM | SW-620 > 100 µM | SF-295 > 100 µM | SR > 100 µM | NCI-H460 > 100 µM

c1ccc([B-]2(c3ccccc3)NCCCO2)cc1
inactive: SK-MEL-5 24.8 µM | DU-145 72.3 µM | A498 47.9 µM | MDA-MB-435 46.3 µM | HT-29 > 100 µM | CCRF-CEM 34.5 µM | A549 58.6 µM | NCI-H226 31 µM | TK-10 43.2 µM | MDA-N 42.7 µM | EKVX 97.5 µM | T47D 34.9 µM | OVCAR-8 70.5 µM | SW-620 49.5 µM | SF-295 51.3 µM | SR 44.9 µM | NCI-H460 72.8 µM

C[C@@H]1C[C@]2(C[C@@H](C)[C@H]3C(C[C@@]4(C)CCC[C@@H]5C6=C[C@H](CCC34C)OC6=CC(=O)OC5(C)C)O2)OC1=O (stereo partly drawn)
inactive: SK-MEL-5 > 51.5 µM | A498 > 51.5 µM | SNB-75 13.1 µM | HT-29 > 51.5 µM | CCRF-CEM > 51.5 µM | A549 > 51.5 µM | EKVX > 51.5 µM | OVCAR-8 > 51.5 µM | MCF7 > 51.5 µM | SW-620 > 51.5 µM | SF-295 > 51.5 µM | NCI-H460 > 51.5 µM

NC(=O)CNC(=O)C1CCCN1C(=O)C1CCCCNOC(=O)CCC(NC(=O)OCC2c3ccccc3-c3ccccc32)C(=O)NC(Cc2c[nH]c3ccccc23)C(=O)N1 (stereo not drawn) (Fmoc-EW[X36]PG-NH2; ester 1-3; configuration not given here)
inactive: SK-MEL-5 > 100 µM | DU-145 > 100 µM | SNB-75 > 100 µM | MDA-MB-435 > 100 µM | HT-29 > 100 µM | CCRF-CEM > 100 µM | A549 > 100 µM | NCI-H226 > 100 µM | TK-10 > 100 µM | EKVX > 100 µM | T47D > 100 µM | OVCAR-8 > 100 µM | MCF7 47.9 µM | SW-620 > 100 µM | SF-295 > 100 µM | SR > 100 µM | NCI-H460 > 100 µM

— ChEMBL document CHEMBL1201862, “PubChem BioAssay data set” (2004)
